Key:
[1] = system: Rabbit Cornea Homogenate; assay: Rabbit Cornea Homogenate Stability Assay (rabbit cornea esterase assay); format: in vitro ADME; conditions: 37° C.
Procedure: Determining Rabbit Cornea Homogenate stability of the test compounds was performed using HPLC-MS. The assay was performed at two concentrations of Rabbit Cornea Homogenate (0.15 mg/ml and 0.45 mg/ml total protein) so that any hydrolysis observed could be assigned as esterase dependent or not.
Five rabbit corneas (e.g. New Zealand Whites) of approx. 50 mg each were sliced and scraped with a scalpel and tweezers until reduced to small (1-3 mm), thin pieces. These were transferred into a tared vial and accurately weighed, then diluted with 10 volumes aqueous PBS pH7.4
Sample was cooled intermittently on ice and shear homogenized for 3 minutes, then centrifuged for 3 min at 3000 rpm. The supernatant was pipetted off into a vial, and total protein concentration determined at 280 nm. Sample was stored at −78° C.
10 mM Compound stocks were diluted to 100 μM in a 96 deep-well plate: 10 μl of 10 mM Compound stock was added to 990 μl 50 mM HEPES, pH7.5 buffer.
Compounds were further diluted to 10 μM: 100 μl of 100 μM compound was added to 900 μl 50 mM HEPES, pH7.5 buffer.
Esterase homogenate was diluted to 300 ng/μl and 900 ng/μl
A heater shaker was set to 37° C. Into a suitable 96 well plate (Run Plate), 75 μl of 300 or 900 ng/μl esterase homogenate was pipetted into each of the required wells (2 min, 5 min, 10 min, 20 min and 45 min). The plate was sealed and then warmed at 37° C. for 5 min. Another 96 well PCR plate is put on ice (Kill Plate). To this was added 100 μl of MeCN to each well, labelled 0 min, 2 min, 5 min, 10 min, 20 min and 45 min. The plate was covered to minimise evaporation. For the T=0 sample only, to the 100 μl cold MeCN stop solution was added 50 μl of 300 or 900 ng/μl esterase homogenate followed by 50 μl of 10 μM compound solution For the remaining time points, 75 μl of 10 μM compound solution was added to the Run Plate starting from T=45 min row and ending with T=2 min row. At the appropriate time point, 100 μl of the assay mixture was added to the matching kill plate well containing 100 μl of cold MeCN. Samples were analysed as soon as practicable by LCMS (Waters Xevo TQ-S or Micromass Ultima).
Parent conjugate and parent concentrations were determined against appropriate standard response curves and the half-life (T1/2) of the parent conjugate was calculated using the peak area of the parent conjugate at each time point in the linear region of the log—linear plot.

[2] = Aqueous Hydrolysis Stability Assay; format: physicochemical; conditions: 100 μM in 50 mM HEPES pH 7.5 buffer or 1:1 Acetonitrile:Water, room temperature
Procedure: Determination of aqueous stability of the test compounds was performed using HPLC-MS. A test compound 10 mM stock solution was prepared in DMSO. 10 μl of the DMSO stock solution was dissolved in 990 μl of 50 mM HEPES pH 7.5 buffer or 1:1 (v/v) of Acetonitrile:Water to make a 100 μM solution. Final DMSO concentration was 1%. The solution was kept at room temperature and injected without delay into the LCMS (Waters Xevo TQ-S or Micromass Ultima). Additional injections were performed at appropriate time points.
Half-life (T1/2) of the parent conjugate was calculated using the peak area of the parent conjugate at each time point in the linear region of the log—linear plot.

[3] = Cornea Homogenate Conc 0.15 mg/mL
[4] = Cornea Homogenate Conc 0.45 mg/mL

SMILES	API Formation rate [1, 3]	Esterase % Lifitegrast formation at 45 min [1, 3]	API Formation rate [1, 4]	Esterase % Lifitegrast formation at 45 min [1, 4]	Hydrolytic % Lifitegrast formation at [time] ([2]; at 142 min)	Hydrolytic % Lifitegrast formation at [time] ([2]; at 192 min)	Hydrolytic % Lifitegrast formation at [time] ([2]; at 45 min)
COC(=O)[C@@H](C)OC(=O)OC(C)OC(=O)[C@H](Cc1cccc(S(C)(=O)=O)c1)NC(=O)c1c(Cl)cc2c(c1Cl)CCN(C(=O)c1ccc3ccoc3c1)C2 (stereo partly drawn) [Comp 7, 1-(((((R)-1-methoxy-1-oxopropan-2-yl)oxy)carbonyl)oxy)ethyl (2S)-2-(2-(benzofuran-6-carbonyl)-5,7-dichloro-1,2,3,4-tetrahydroisoquinoline-6-carboxamido)-3-(3-(methylsulfonyl)phenyl) propanoate]	b (API formation rate 0.5-1.0%/min)	B (percent API formation 25% to 50%)	c (API formation rate 1.0-1.5%/min)	C (percent API formation 51% to 75%)	B [142 min] (percent API formation 1.5-4%)	–	–
CC(C)OC(=O)OC(C)OC(=O)[C@H](Cc1cccc(S(C)(=O)=O)c1)NC(=O)c1c(Cl)cc2c(c1Cl)CCN(C(=O)c1ccc3ccoc3c1)C2 (stereo partly drawn) [Comp 5, 1-((isopropoxycarbonyl)oxy)ethyl (2S)-2-(2-(benzofuran-6-carbonyl)-5,7-dichloro-1,2,3,4-tetrahydroisoquinoline-6-carboxamido)-3-(3-(methylsulfonyl)phenyl) propanoate]	b (API formation rate 0.5-1.0%/min)	B (percent API formation 25% to 50%)	d (API formation rate>1.5%/min)	D (percent API formation>75%)	–	A [192 min] (percent active pharmaceutical ingredient (API) formation<1.5%)	–
CC(OC(=O)C(C)C)OC(=O)[C@H](Cc1cccc(S(C)(=O)=O)c1)NC(=O)c1c(Cl)cc2c(c1Cl)CCN(C(=O)c1ccc3ccoc3c1)C2 (stereo partly drawn) [Comp 16, 1-(isobutyryloxy)ethyl (2S)-2-(2-(benzofuran-6-carbonyl)-5,7-dichloro-1,2,3,4-tetrahydroisoquinoline-6-carboxamido)-3-(3-(methylsulfonyl)phenyl) propanoate]	d (API formation rate>1.5%/min)	D (percent API formation>75%)	d (API formation rate>1.5%/min)	D (percent API formation>75%)	C [142 min] (percent API formation>4%)	–	–
CC(OC(=O)OCC(COC(=O)C(C)(C)C)COC(=O)C(C)(C)C)OC(=O)[C@H](Cc1cccc(S(C)(=O)=O)c1)NC(=O)c1c(Cl)cc2c(c1Cl)CCN(C(=O)c1ccc3ccoc3c1)C2 (stereo partly drawn) [Comp 12, 2-((8S)-10-(2-(benzofuran-6-carbonyl)-5,7-dichloro-1,2,3,4-tetrahydroisoquinolin-6-yl)-5-methyl-8-(3-(methylsulfonyl)benzyl)-3,7,10-trioxo-2,4,6-trioxa-9-azadecyl)propane-1,3-diyl bis(2,2-dimethylpropanoate)]	a (API formation rate<0.5%/min)	A (percent active pharmaceutical ingredient (API) formation<25%)	a (API formation rate<0.5%/min)	A (percent active pharmaceutical ingredient (API) formation<25%)	B [142 min] (percent API formation 1.5-4%)	–	–
CC(OC(=O)[C@H](Cc1cccc(S(C)(=O)=O)c1)NC(=O)c1c(Cl)cc2c(c1Cl)CCN(C(=O)c1ccc3ccoc3c1)C2)OC(=O)[C@@H](C)O (stereo partly drawn) [Comp 18, 1-(((R)-2-hydroxypropanoyl)oxy) ethyl (2S)-2-(2-(benzofuran-6-carbonyl)-5,7-dichloro-1,2,3,4-tetrahydroisoquinoline-6-carboxamido)-3-(3-(methylsulfonyl)phenyl) propanoate]	c (API formation rate 1.0-1.5%/min)	C (percent API formation 51% to 75%)	d (API formation rate>1.5%/min)	D (percent API formation>75%)	–	–	C [45 min] (percent API formation>4%)
COC(=O)OC(C)OC(=O)[C@H](Cc1cccc(S(C)(=O)=O)c1)NC(=O)c1c(Cl)cc2c(c1Cl)CCN(C(=O)c1ccc3ccoc3c1)C2 (stereo partly drawn) [Comp 3, 1-((methoxycarbonyl)oxy) ethyl (2S)-2-(2-(benzofuran-6-carbonyl)-5,7-dichloro-1,2,3,4-tetrahydroisoquinoline-6-carboxamido)-3-(3-(methylsulfonyl)phenyl) propanoate]	d (API formation rate>1.5%/min)	B (percent API formation 25% to 50%)	b (API formation rate 0.5-1.0%/min)	C (percent API formation 51% to 75%)	–	–	B [45 min] (percent API formation 1.5-4%)
CCOC(=O)[C@@H](C)OC(=O)OC(C)OC(=O)[C@H](Cc1cccc(S(C)(=O)=O)c1)NC(=O)c1c(Cl)cc2c(c1Cl)CCN(C(=O)c1ccc3ccoc3c1)C2 (stereo partly drawn) [Comp 8, 1-(((((R)-1-ethoxy-1-oxopropan-2-yl)oxy)carbonyl)oxy)ethyl (2S)-2-(2-(benzofuran-6-carbonyl)-5,7-dichloro-1,2,3,4-tetrahydroisoquinoline-6-carboxamido)-3-(3-(methylsulfonyl)phenyl) propanoate]	b (API formation rate 0.5-1.0%/min)	B (percent API formation 25% to 50%)	d (API formation rate>1.5%/min)	C (percent API formation 51% to 75%)	–	–	A [45 min] (percent active pharmaceutical ingredient (API) formation<1.5%)
CCC(=O)OC(C)OC(=O)[C@H](Cc1cccc(S(C)(=O)=O)c1)NC(=O)c1c(Cl)cc2c(c1Cl)CCN(C(=O)c1ccc3ccoc3c1)C2 (stereo partly drawn) [Comp 15, 1-(propionyloxy)ethyl (2S)-2-(2-(benzofuran-6-carbonyl)-5,7-dichloro-1,2,3,4-tetrahydroisoquinoline-6-carboxamido)-3-(3-(methylsulfonyl)phenyl) propanoate]	d (API formation rate>1.5%/min)	C (percent API formation 51% to 75%)	d (API formation rate>1.5%/min)	D (percent API formation>75%)	–	–	B [45 min] (percent API formation 1.5-4%)
CC(OC(=O)OC(C)(C)C)OC(=O)[C@H](Cc1cccc(S(C)(=O)=O)c1)NC(=O)c1c(Cl)cc2c(c1Cl)CCN(C(=O)c1ccc3ccoc3c1)C2 (stereo partly drawn) [Comp 6, 1-((tert-butoxycarbonyl)oxy)ethyl (2S)-2-(2-(benzofuran-6-carbonyl)-5,7-dichloro-1,2,3,4-tetrahydroisoquinoline-6-carboxamido)-3-(3-(methylsulfonyl)phenyl) propanoate]	a (API formation rate<0.5%/min)	A (percent active pharmaceutical ingredient (API) formation<25%)	b (API formation rate 0.5-1.0%/min)	B (percent API formation 25% to 50%)	C [142 min] (percent API formation>4%)	–	–
CC(OC(=O)CO)OC(=O)[C@H](Cc1cccc(S(C)(=O)=O)c1)NC(=O)c1c(Cl)cc2c(c1Cl)CCN(C(=O)c1ccc3ccoc3c1)C2 (stereo partly drawn) [Comp 19, 1-(2-hydroxyacetoxy)ethyl (2S)-2-(2-(benzofuran-6-carbonyl)-5,7-dichloro-1,2,3,4-tetrahydroisoquinoline-6-carboxamido)-3-(3-(methylsulfonyl)phenyl) propanoate]	b (API formation rate 0.5-1.0%/min)	B (percent API formation 25% to 50%)	b (API formation rate 0.5-1.0%/min)	B (percent API formation 25% to 50%)	–	–	B [45 min] (percent API formation 1.5-4%)

Source: patent US10875845B2, “Compounds and methods for the treatment of ocular disorders” (Azura Ophthalmics Ltd., priority 2019, dated 2020)
